Experimental data as given in US20230393118A1, “DEVICES AND METHODS FOR MONITORING CELLS, TISSUES, OR ORGANS-ON-A-CHIP” (University of Rochester, priority 2020, published 2023).

Columns and labels:
[1] = estimated in rodents in the literature; cited from earlier work
[2] = measured plasma drug concentration or target trough, provided by pharmaceutical makers as general guidelines; cited from earlier work
16HBE cells = experiment: Real-time photonic ring sensor detection of cytokine secretion from 16HBE cells exposed to LPS; type: cell-based, human; settings: LPS 1 μg/mL in DMEM, 30 μL/min for 3 hours, 37° C.
Description: 16HBE cells were seeded on the membrane of the exemplar device and allowed to adhere to the membrane for 3 hours. The device was then connected to a peristaltic pump, which contacted the cells with Dulbecco's Modified Eagles' Medium (DMEM) at a low flow rate (˜30 μL/min) overnight. The next day, the device was set on a temperature-controlled stage (37° C.) and DMEM doped with LPS (at 1 μg/mL) was flowed over the cells (through the top channel) at 30 μL/min for 3 hours. Spectra were measured continuously to observe any shifts in resonance of the photonic ring resonators over time.
FIG. 1F is a graph with a Y axis showing the wavelength of light resonant in the test and the control ring sensors, with longer wavelengths towards the top, and an X axis showing time in seconds following exposure of the cells to LPS. […]
FIG. 1G presents graphs showing the results of subtracting the shifts in the […] (indicating non-specific binding) from that of the […] for two cytokines, IL-6 (left graph) and IL-1B (right-hand graph). […] For the reader's attention, it is noted that the scale of the two graphs is different, with much smaller quantities of cytokine being detected in the right-hand graph. […]

tendon fibroblasts = experiment: Tendon fibroblasts seeded on axially-constrained hydrogel treated with TGF-β1; type: cell-based; settings: fibroblasts differentiate into myofibroblasts
From the text: Subsequently, activation of α-SMA+ve myofibroblasts is evident even after 28 dpi.

CO[C@H]1C[C@@H]2CC[C@@H](C)[C@@](O)(O2)C(=O)C(=O)N2CCCC[C@H]2C(=O)O[C@H]([C@H](C)C[C@@H]2CC[C@@H](OCCO)[C@H](OC)C2)CC(=O)[C@H](C)/C=C(\C)[C@@H](O)[C@@H](OC)C(=O)[C@H](C)C[C@H](C)/C=C/C=C/C=C/1C [Everolimus]
ED50 [1]: ~0.1 to 2.38 mg/kg
Target whole blood trough concentrations (plasma concentrations) [2]: 5 to 15 ng/mL

CO[C@H]1C[C@@H]2CC[C@@H](C)[C@@](O)(O2)C(=O)C(=O)N2CCCC[C@H]2C(=O)O[C@H]([C@H](C)C[C@@H]2CC[C@@H](O)[C@H](OC)C2)CC(=O)[C@H](C)/C=C(\C)[C@@H](O)[C@@H](OC)C(=O)[C@H](C)C[C@H](C)/C=C/C=C/C=C/1C [Sirolimus]
Target whole blood trough concentrations (plasma concentrations) [2]: 16 to 24 ng/mL

Lipopolysaccharide [LPS]
Time at which secretion of cytokines (IL-6, IL-1β) begins after LPS exposure (16HBE cells): about 70 minutes

TGF-β1: cytokine used to induce myofibroblast differentiation in tendon fibroblasts
α-SMA gene (Acta) expression and hydrogel lateral contraction (tendon fibroblasts): dose-dependent increase
